Values of other authors, collected in patent US6645930B1, “Clean room wipes for neutralizing caustic chemicals” (EKC Technology, Inc., priority 2000, dated 2003).

Legend:
[1] = for pKa3: third ionization constant; for pKa1: first ionization constant
[2] = at 25° C.

Row | pKa2 ([1]; second ionization constant) | vapor pressure [2] | SMILES | pKa3 [1] | pKa1 [1]
1 |  |  | O=C(O)CC(O)(CC(=O)O)C(=O)O [Citric, citric acid] | 6.9 | 
2 |  |  | O=C(O)c1cc(O)c(O)c(O)c1 [Gallic, gallic acid] | 8.9 | 4.2
3 | 4.7 |  | O=C(O)[C@H](O)[C@@H](O)[C@H](O)[C@H](O)CO [Gluconic, gluconic acid] |  | 3.5
4 |  | 0.02 kPascal | CC(O)CO (stereo not drawn) [propylene glycol] |  | 
